As usually defined, the pIC50 is the negative decadic logarithm of the IC50, by convention in mol/L. The low end stands for a high IC50, the high end for a low IC50.

pIC50: −log10 of the molar value.

Our source for the IC50 values is BindingDB's records for doi:10.1016/j.ejmech.2009.11.010 (Chinese Academy of Sciences, 2010).

This test has as its target T1, Cathepsin K (Homo sapiens, UniProt P43235).
T1 sequence (P43235 whole entry): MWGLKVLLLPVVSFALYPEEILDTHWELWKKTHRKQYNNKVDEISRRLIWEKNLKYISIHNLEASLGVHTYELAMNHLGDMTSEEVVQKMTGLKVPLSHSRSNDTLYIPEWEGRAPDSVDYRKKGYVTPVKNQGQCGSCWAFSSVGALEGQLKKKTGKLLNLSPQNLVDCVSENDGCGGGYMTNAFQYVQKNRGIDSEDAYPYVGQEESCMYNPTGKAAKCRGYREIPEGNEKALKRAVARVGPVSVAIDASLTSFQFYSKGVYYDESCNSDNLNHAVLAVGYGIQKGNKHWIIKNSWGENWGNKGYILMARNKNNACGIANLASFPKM
Briefly: Inhibition of human cathepsin K.
`CCCC[C@H](NC(=O)O[C@H](Cc1nnc(-c2ccc(C(F)(F)F)cc2)o1)C(C)(C)C)C(=O)C(=O)NN1CCOC1=O` [(1R)-2,2-DIMETHYL-1-({5-[4-(TRIFLUOROMETHYL)PHENYL]-1,3,4-OXADIAZOL-2-YL}METHYL)PROPYL (1S)-1-{OXO[(2-OXO-1,3-OXAZOLIDIN-3-YL)AMINO]ACETYL}PENTYLCARBAMATE]: the pIC50 was 9.89.

Compound `CCCC[C@H](NC(=O)O[C@H](Cc1nnc(-c2ccc(F)cc2)o1)C(C)(C)C)C(=O)C(=O)NCc1cccnc1` [(R)-1-(5-(4-fluorophenyl)-1,3,4-oxadiazol-2-yl)-3,3-dimethylbutan-2-yl(S)-1,2-dioxo-1-(pyridin-3-ylmethylamino)heptan-3-ylcarbamate] had a pIC50 of 8.55.

The compound `CCCC[C@H](NC(=O)O[C@H](Cc1nnc(-c2ccccc2)o1)C(C)(C)C)C(=O)C(=O)N[C@H](C)c1ccccc1` [(R)-3,3-dimethyl-1-(5-phenyl-1,3,4-oxadiazol-2-yl)butan-2-yl(S)-1,2-dioxo-1-((R)-1-phenylethylamino)heptan-3-ylcarbamate] showed a pIC50 of 9.62.

The compound `CCCC[C@H](NC(=O)O[C@H](CN1CCN(c2ccc(C(F)(F)F)cc2)C1=O)C(C)(C)C)C(=O)C(=O)Nc1ccn[nH]1` [(S)-3,3-dimethyl-1-(2-oxo-3-(4-(trifluoromethyl)phenyl)imidazolidin-1-yl)butan-2-yl(S)-1-(1H-pyrazol-5-ylamino)-1,2-dioxoheptan-3-ylcarbamate] showed a negative logarithm of the IC50 (pIC50) of 9.47.

Compound `CCCC[C@H](NC(=O)O[C@H](Cc1nnc(-c2ccc(F)cc2)o1)C(C)(C)C)C(=O)C(=O)N[C@H](C)c1ccccc1` [[(S)-1-(1-Phenyl-ethylaminooxalyl)-pentyl]-carbamic acid (R)-1-[5-(4-fluoro-phenyl)-[1,3,4]oxadiazol-2-ylmethyl]-2,2-dimethyl-propyl ester] gave a pIC50 of 9.43.

Take `CCCC[C@H](NC(=O)O[C@H](Cc1nnc(-c2ccc(C(F)(F)F)cc2)o1)C(C)(C)C)C(=O)C(=O)N[C@H](C)c1ccccc1` [[(S)-1-(1-Phenyl-ethylaminooxalyl)-pentyl]-carbamic acid (R)-2,2-dimethyl-1-[5-(4-trifluoromethyl-phenyl)-[1,3,4]oxadiazol-2-ylmethyl]-propyl ester]: the pIC50 was 9.39.

As for `CCCC[C@H](NC(=O)O[C@@H](Cc1nnc(-c2ccccc2)o1)C(C)(C)C)C(=O)C(=O)N[C@H](C)c1ccccc1` [[(S)-1-(1-Phenyl-ethylaminooxalyl)-pentyl]-carbamic acid (S)-2,2-dimethyl-1-(5-phenyl-[1,3,4]oxadiazol-2-ylmethyl)-propyl ester], the negative-log IC50 (pIC50) is 6.34.

Take `CCCC[C@H](NC(=O)O[C@H](Cc1nnc(-c2ccc(C(F)(F)F)cc2)o1)C(C)(C)C)C(=O)C(=O)Nc1ccn[nH]1` [[(S)-1-(2H-Pyrazol-3-ylaminooxalyl)-pentyl]-carbamic acid (R)-2,2-dimethyl-1-[5-(4-trifluoromethyl-phenyl)-[1,3,4]oxadiazol-2-ylmethyl]-propyl ester]: the pIC50 was 10.54.

Consider `CCCC[C@H](NC(=O)O[C@H](Cn1cnc(-c2ccc(C(F)(F)F)cc2)c1)C(C)(C)C)C(=O)C(=O)Nc1nccs1` [[(S)-1-(Thiazol-2-ylaminooxalyl)-pentyl]-carbamic acid (S)-2,2-dimethyl-1-[4-(4-trifluoromethyl-phenyl)-imidazol-1-ylmethyl]-propyl ester], for which the pIC50 was 8.24.
